Laboratory results as given in patent publication US20080312277A1, “Gpr41 and Modulators Thereof for the Treatment of Insulin-Related Disorders” (priority 2004, published 2008).

How the values were obtained:
male C57b1/6 mice = test: Oral glucose tolerance test (oGTT); format: in vivo; conditions: p.o. 30 min before oral dextrose 3 g/kg, FIG. 8
Description: For the oGTT, male C57b1/6 mice were fasted for about 18 hours and randomly grouped to receive the compounds indicated in FIG. 8 at the indicated doses, or vehicle (PET which contains 80% PEG, 10% Tween80, and 10% Ethanol). The indicated compound(s) were delivered orally via a gavage needle (p.o. volume at 100 μl). Thirty minutes after administration of the compound(s) or vehicle, mice were administered orally with dextrose at 3 g/kg dose. Levels of blood glucose were determined at several time points using Glucometer Elite XL (Bayer).

GPR41 = target: T1, GPR41 (Homo sapiens, UniProt O14843); conditions: Brown et al., J. Biol. Chem. 278:11312-11319 (2003); cited from earlier work
T1 sequence (O14843 1-346): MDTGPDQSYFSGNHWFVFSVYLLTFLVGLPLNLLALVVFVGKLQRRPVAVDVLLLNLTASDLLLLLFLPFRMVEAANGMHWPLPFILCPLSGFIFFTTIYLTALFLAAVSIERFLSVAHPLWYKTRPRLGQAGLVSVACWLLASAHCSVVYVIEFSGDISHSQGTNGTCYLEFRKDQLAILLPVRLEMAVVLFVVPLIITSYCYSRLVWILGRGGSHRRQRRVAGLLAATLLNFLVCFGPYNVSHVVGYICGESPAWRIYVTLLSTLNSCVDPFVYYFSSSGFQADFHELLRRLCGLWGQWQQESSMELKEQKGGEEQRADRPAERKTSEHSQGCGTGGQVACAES

## CC1=C(C(=O)Nc2ccccc2C)C(c2ccoc2)C2=C(CCCC2=O)N1 (stereo not drawn) [Compound 4, 4-Furan-3-yl-2-methyl-5-oxo-1,4,5,6,7,8-hexahydro-quinoline-3-carboxylic acid o-tolylamide]
Male C57b1/6 mice; used in conjunction with Compound B111
  effect on the glycemic lowering effect of Compound B111 in the oGTT (plasma glucose): reversed the glycemic lowering effect of Compound B111

## CC(C)c1noc(C2CCN(c3ncnc(Nc4ccc(S(C)(=O)=O)cc4F)c3[N+](=O)[O-])CC2)n1 [Compound B111, (2-Fluoro-4-methanesulfonyl-phenyl)-{6-[4-(3-isopropyl-[1,2,4]oxadiazol-5-yl)-piperidin-1-yl]-5-nitro-pyrimidin-4-yl}-amine]
Male C57b1/6 mice; used alone
  glycemic effect in the oGTT: glycemic lowering effect

## CCC(=O)O [propionate]
GPR41
  activation of GPR41: activated
